The source of these data is PubChem BioAssay (NCI).

Test systems include SK-MEL-2 melanoma; SN12C renal; IGROV1 ovarian; UO-31 renal; HOP-62 NSCLC; BT-549 breast; A549 NSCLC; SNB-75 CNS; OVCAR-8 ovarian; RXF 393 renal; A498 renal.
Common to all, as to test: inhibition of tumour cell growth, NCI panel, 48 h

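Cultured in 96-well plates, cells were exposed to test compound for 48 hours across five concentrations. TGI denotes the concentration required for complete inhibition of growth.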 Where a SMILES comes first, the peptide text is derived from it. Bridges are numbered along the chain shown (N, C = ends). The star is where a group is joined. Cbz = O=C(OCc1ccccc1)*

`CCN1CCCC(Nc2cc(C)nc(/N=C(/N)Nc3ccc(Cl)c(Cl)c3)n2)C1` (configuration not stated): the TGI was 4.04 µM with SK-MEL-2 melanoma; 6.64 µM with SN12C renal; 3.06 µM in the test on IGROV1 ovarian; 2.18 µM in the test on UO-31 renal; 2.88 µM in the test with HOP-62 NSCLC; 3.29 µM with BT-549 breast. Moreover, the TGI turned out to be 4.22 µM with A549 NSCLC and 2.71 µM in the test on SNB-75 CNS.

Take `COc1cc2c(cc1C)NC(=O)/C2=C\c1ccncc1`: the TGI with SK-MEL-2 melanoma was determined as 10.1 µM; in the test with OVCAR-8 ovarian, 5.92 µM; in the test with SN12C renal, 20.9 µM; with RXF 393 renal it was 13.4 µM; in the test with IGROV1 ovarian, 6.94 µM; with UO-31 renal, 18.3 µM. In addition, the TGI worked out at 22.8 µM with HOP-62 NSCLC, 66.5 µM in the test on A549 NSCLC and 33.7 µM in the test with SNB-75 CNS.

On to `O=c1[nH]c2cc3cccnc3c(Cl)c2nc1CBr`, for which the TGI in the test on OVCAR-8 ovarian was found to be 44.4 µM; in the test on SN12C renal it was 27 µM; with RXF 393 renal, 34.6 µM; with IGROV1 ovarian, 12.3 µM; in the test on UO-31 renal, 23.6 µM; in the test on HOP-62 NSCLC, 29.4 µM. The TGI in the test on BT-549 breast is 89.8 µM; with A549 NSCLC, 38.8 µM.

As to `C#CCSc1nc(N)c2ncn(C3OC(COP(=O)(O)O)C(O)C3O)c2n1` (configuration not stated), the TGI in the test on SK-MEL-2 melanoma, with OVCAR-8 ovarian, in the test with SN12C renal, with A498 renal, with IGROV1 ovarian and in the test with UO-31 renal was over 239 µM throughout. In addition, the TGI in the test on HOP-62 NSCLC, in the test on A549 NSCLC and in the test with SNB-75 CNS was over 239 µM in each case.

On to `Nc1ccc(C(=O)NN2C(=O)C(Cl)C2c2cccc(O)c2)cc1` (configuration not stated), for which the TGI in the test with SK-MEL-2 melanoma turned out to be 30.5 µM; in the test with OVCAR-8 ovarian, 54.4 µM; with SN12C renal, 32.3 µM; in the test with A498 renal it was 58.1 µM; in the test on IGROV1 ovarian, 28.6 µM; in the test with UO-31 renal, 35 µM. Besides, the values for the TGI in the test with HOP-62 NSCLC, in the test with A549 NSCLC and with SNB-75 CNS were 30.7 µM, 39.3 µM and 56.1 µM, respectively.

Regarding `COc1ccc(-c2onc(-c3c(C)cc(C)cc3C)c2C2=NCCN2)cc1`, the TGI in the test on SK-MEL-2 melanoma, in the test on OVCAR-8 ovarian, in the test with SN12C renal, in the test on RXF 393 renal, with IGROV1 ovarian and with UO-31 renal was over 100 µM throughout. Also, the TGI in the test with HOP-62 NSCLC, with A549 NSCLC and in the test with SNB-75 CNS was over 100 µM each time.

As to `CC(=O)Nc1ccc(C(=O)NN2C(=O)C(Cl)C2c2ccc(O)cc2)cc1` (configuration not stated), the TGI in the test with SK-MEL-2 melanoma, with OVCAR-8 ovarian, with SN12C renal, with A498 renal, with RXF 393 renal and in the test with IGROV1 ovarian was over 100 µM each time. Also, the TGI in the test with UO-31 renal, with HOP-62 NSCLC, in the test with A549 NSCLC and in the test on SNB-75 CNS was over 100 µM each time.

For the compound `CC1=NN(C(=O)c2ccc(Cl)cc2)C(=O)/C1=C/c1ccc(Cl)cc1`, the TGI in the test with SK-MEL-2 melanoma, in the test with OVCAR-8 ovarian, in the test on SN12C renal, with A498 renal, in the test with RXF 393 renal and in the test with IGROV1 ovarian was over 100 µM throughout. Also, the TGI in the test with UO-31 renal, with HOP-62 NSCLC and in the test on A549 NSCLC was over 100 µM in each case.

In the case of `COc1cc(/C=N\NC(=O)C[N+](C)(C)C)cc(OC)c1OC`, the TGI with OVCAR-8 ovarian, in the test with SN12C renal, in the test on IGROV1 ovarian, in the test with HOP-62 NSCLC, in the test with BT-549 breast and with A549 NSCLC was over 10 µM throughout. Further, the TGI in the test with SNB-75 CNS is over 10 µM.

Consider `C=C(Br)CNCC(=C)Br`, for which the TGI in the test with SK-MEL-2 melanoma, with OVCAR-8 ovarian, with SN12C renal, in the test on A498 renal, with RXF 393 renal and in the test on IGROV1 ovarian was over 100 µM in each case. The TGI with UO-31 renal, with HOP-62 NSCLC, with A549 NSCLC and with SNB-75 CNS was over 100 µM each time.

Take `CN1Cc2c(nc(-c3ccc(Br)cc3)c[n+]2[O-])N(C)C1`: the TGI in the test with SK-MEL-2 melanoma, in the test on OVCAR-8 ovarian, in the test with SN12C renal, in the test on A498 renal, in the test on RXF 393 renal and in the test with IGROV1 ovarian was over 100 µM each time. In addition, the TGI with UO-31 renal, in the test with HOP-62 NSCLC, with A549 NSCLC and in the test with SNB-75 CNS was over 100 µM each time.

As for `CCOC(=O)c1c(NCc2ccccc2)n(-c2ccccc2)c(=S)n(-c2ccccc2)c1=O`, the TGI in the test on SK-MEL-2 melanoma, with OVCAR-8 ovarian, with SN12C renal, with RXF 393 renal, with IGROV1 ovarian and with UO-31 renal was over 100 µM throughout. The TGI with BT-549 breast, in the test with A549 NSCLC and with SNB-75 CNS was over 100 µM throughout.

For `COC(=O)C1CCCCNC(=O)CCC(NC(=O)OCc2ccccc2)C(=O)N1` (stereo not drawn) (Cbz-Glu-Lys-OMe; lactam 1-2; configuration not given here), the TGI in the test with SK-MEL-2 melanoma, in the test on OVCAR-8 ovarian, in the test on SN12C renal, in the test on A498 renal, in the test with RXF 393 renal and with IGROV1 ovarian was over 100 µM in each case. Further, the TGI in the test on UO-31 renal, in the test with HOP-62 NSCLC, in the test with A549 NSCLC and with SNB-75 CNS was over 100 µM each time.

Regarding `C/C(=C\Cc1cc(O)ccc1O)CCc1c(C)c(O)c(O)c(C=O)c1C`, the TGI in the test on SK-MEL-2 melanoma was 54.4 µM; in the test on OVCAR-8 ovarian, 47 µM; with SN12C renal, 77.8 µM; in the test with A498 renal it was over 100 µM; in the test with RXF 393 renal, 43.8 µM; in the test on IGROV1 ovarian it was 41.3 µM. Further, the TGI in the test with UO-31 renal is 98.8 µM; in the test on A549 NSCLC, 92.8 µM; in the test with SNB-75 CNS, over 100 µM.

For `O=C1c2ccccc2-c2nc(-c3ccccc3)cc3c2c1nc1ccccc13`, the TGI with SK-MEL-2 melanoma is 51.4 µM; with OVCAR-8 ovarian, 66.8 µM; with SN12C renal, 32.8 µM; in the test with RXF 393 renal, over 100 µM; in the test with IGROV1 ovarian, 23 µM; in the test with UO-31 renal, 84.1 µM. Also, the TGI in the test with HOP-62 NSCLC came out at 47.2 µM; in the test with BT-549 breast, 42.9 µM; in the test with A549 NSCLC, 52.9 µM.

For the compound `CCOP(=O)(OCC)C1(O)CC(n2cc(C)c(=O)[nH]c2=O)OC1CO` (configuration not stated), the TGI in the test on SK-MEL-2 melanoma, in the test with OVCAR-8 ovarian, with SN12C renal, in the test with A498 renal, in the test on RXF 393 renal and with IGROV1 ovarian was over 100 µM each time. For the same compound, the TGI with UO-31 renal, with HOP-62 NSCLC, with A549 NSCLC and in the test with SNB-75 CNS was over 100 µM each time.

In the case of `CCCCc1ccc(-n2sc3ncccc3c2=O)cc1`, the TGI in the test on SK-MEL-2 melanoma worked out at 43.9 µM; with OVCAR-8 ovarian it was 45.7 µM; in the test on SN12C renal, 37.7 µM; in the test with IGROV1 ovarian, 33.3 µM; in the test with UO-31 renal, 34.7 µM; with HOP-62 NSCLC it was 36.2 µM. For the same compound, the TGI came out at 35.7 µM in the test on BT-549 breast, 99.4 µM with A549 NSCLC and 50.3 µM in the test with SNB-75 CNS.

In the case of `O=C(COc1ccc(Cl)cc1)N1CCN(C(=O)COc2ccc(Cl)cc2)c2ccccc21`, the TGI with SK-MEL-2 melanoma is over 100 µM; with OVCAR-8 ovarian, over 100 µM; in the test on A498 renal, over 100 µM; in the test on RXF 393 renal it was over 100 µM; in the test on IGROV1 ovarian, over 100 µM; in the test with UO-31 renal, 53.9 µM. Also, the TGI in the test with HOP-62 NSCLC, in the test with A549 NSCLC and with SNB-75 CNS was over 100 µM each time.

On to `O/N=C1\CCc2nonc2\C1=N/Nc1ccccc1`, for which the TGI with SK-MEL-2 melanoma, in the test on OVCAR-8 ovarian, in the test on SN12C renal, in the test with RXF 393 renal, with IGROV1 ovarian and in the test on UO-31 renal was over 100 µM throughout. For the same compound, the TGI in the test on HOP-62 NSCLC, with A549 NSCLC and in the test with SNB-75 CNS was over 100 µM each time.

Turning to `CC(=O)Nc1ccc(C(=O)N2N=C(C)/C(=C/c3cccc([N+](=O)[O-])c3)C2=O)cc1`, the TGI with OVCAR-8 ovarian, with SN12C renal, with UO-31 renal, with HOP-62 NSCLC, in the test on A549 NSCLC and with SNB-75 CNS was over 100 µM in each case.

Regarding `Cc1occ2c1C(=O)CC1C2[C@@H](O)CC2C(C)(C)CCC[C@]12C` (some centres not stated), the TGI in the test with OVCAR-8 ovarian, with SN12C renal, with A498 renal, in the test with RXF 393 renal, in the test with IGROV1 ovarian and with UO-31 renal was over 100 µM each time. Besides, the TGI in the test with HOP-62 NSCLC, in the test on A549 NSCLC and with SNB-75 CNS was over 100 µM each time.

On to `COC1(C)C(=O)N2C1N(C(=O)OCc1ccccc1)CC2(C)C` (configuration not stated), for which the TGI in the test on SK-MEL-2 melanoma, with OVCAR-8 ovarian, with SN12C renal, with A498 renal, in the test on RXF 393 renal and in the test on IGROV1 ovarian was over 100 µM each time. Moreover, the TGI in the test with UO-31 renal, in the test with HOP-62 NSCLC, in the test on A549 NSCLC and in the test on SNB-75 CNS was over 100 µM in each case.
